Here are results for ten molecules from ChEMBL document CHEMBL3137667, “[Drug-induced liver injury; fourteenth updated edition of the bibliographic database of liver injuries and related drugs]” (Gastroenterol Clin Biol, 2004).

The conditions of series [1]: human.
The conditions of series [2]: human. This is another data set of the same source.
Series [3] in a line: Times to onset, minimal and maximal, observed in the indexed observations. [column 'DELAI' in source]. Conditions: human.
For series [4] the following is noted: human, serum, 4383 h.
The conditions of series [5]: human, serum.
For series [6] the following is noted: human. This is another data set of the same source.
The nature of series [7]: Highest frequency of moderate liver toxicity observed during clinical trials, expressed as a percentage. [column '% BIOL' in source]. Conditions: human.
For series [8] the following is noted: human. The source holds these as a separate data set.
The conditions of series [9]: human. This is another data set of the same source.
The conditions of series [10]: human. This is another data set of the same source.
Series [11] in a line: Highest frequency of acute liver toxicity observed during clinical trials, expressed as a percentage. [column '% AIGUE' in source]. Conditions: human.
For series [12] the following is noted: human, serum. The source holds these as a separate data set.
The conditions of series [13]: human. This is another data set of the same source.
For series [14] the following is noted: human. This is another data set of the same source.
For series [15] the following is noted: human. This is another data set of the same source.
For series [16] the following is noted: human. The source holds these as a separate data set.
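For Hepatotoxicity (association with vascular disease) in this document: count of indexed literature references reporting vascular liver injury in humans, e.g. peliosis hepatitis, hepatic veno-occlusive disease or Budd-Chiari syndrome.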
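For Hepatotoxicity (benign tumour) in this document: value is a count of indexed literature references citing a benign tumour confirmed by histopathology.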
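For Hepatotoxicity (choleostasis) in this document: human cholestatic liver injury, shown by histopathology or by peak ALT or AST elevation over alkaline phosphatase ratio below 2, value counts indexed literature reports.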
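For Hepatotoxicity (chronic liver disease) in this document: chronic liver injury confirmed by histopathology or persistently raised serum aminotransferase activity beyond 6 months, value given as the count of indexed literature references.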
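For Hepatotoxicity (cirrhosis) in this document: value is a count of indexed literature references reporting cirrhosis confirmed by histopathology.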
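For Hepatotoxicity (cytolytic) in this document: human cytolytic liver injury, shown by histopathology or by a ratio above 5 of peak ALT or AST elevation to alkaline phosphatase elevation, value counts indexed references.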
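For Hepatotoxicity (granulomatous hepatitis) in this document: value is a count of indexed literature references reporting granulomatous liver disease confirmed by histopathology.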
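For Hepatotoxicity (malignant tumour) in this document: malignant tumour confirmed by histopathology, value gives the count of indexed literature references reporting it.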
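For Hepatotoxicity (severe hepatitis) in this document: human clinical data: severe hepatitis, meaning potentially life-threatening liver failure or clinically observed cases, the value counts how many indexed literature references report it.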
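For Hepatotoxicity (steatosis) in this document: steatosis confirmed by histopathology, value is the count of indexed references.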

In the case of `CCN(CC)CCNc1ccc(CO)c2sc3ccccc3c(=O)c12` [HYCANTHONE], the “Hepatotoxicity (steatosis)” value in series [1] is recorded as 1. Moreover, in series [2], the “Hepatotoxicity (malignant tumour)” value worked out at 0. The “Hepatotoxicity (time to onset)” value in series [3] was 1 day - 18 days. In addition, in series [4], the “Hepatotoxicity (chronic liver disease)” value amounted to 1. Also, the “Hepatotoxicity (moderate)” value was found to be 1 in series [5] and 0% in series [7]. In [6], the “Hepatotoxicity (choleostasis)” value stood at 1. The “Hepatotoxicity (severe hepatitis)” value in series [8] was 16. Also, in [9], the “Hepatotoxicity (cytolytic)” value is listed as 3. Moreover, the “Hepatotoxicity (benign tumour)” value in [10] is 0. Besides, the results for the “Hepatotoxicity (acute)” value in series [11] and in [12] were 0% and 7, respectively. Besides, the “Hepatotoxicity (granulomatous hepatitis)” value in series [13] is listed as 0. For the same molecule, the “Hepatotoxicity (cirrhosis)” value in series [14] turned out to be 0. Also, the “Hepatotoxicity (animal toxicity known)” value in [15] is “yes”. Also, the “Hepatotoxicity (association with vascular disease)” value in series [16] stood at 0.
Take `Nc1ncn([C@@H]2O[C@H](CO)[C@@H](O)[C@H]2O)c(=O)n1` [AZACITIDINE]: the “Hepatotoxicity (steatosis)” value in series [1] is on record as 0. Also, the “Hepatotoxicity (malignant tumour)” value in [2] is listed as 0. Also, in series [3], the “Hepatotoxicity (time to onset)” value came out at 1 week. Also, the “Hepatotoxicity (chronic liver disease)” value in [4] is reported as 0. Also, the “Hepatotoxicity (moderate)” value in series [5] is given as 5; in series [7] (Liver), 62.5%. The “Hepatotoxicity (choleostasis)” value in series [6] (Liver) is recorded as 0. Also, in series [8] (Liver), the “Hepatotoxicity (severe hepatitis)” value is given as 2. For the same molecule, the “Hepatotoxicity (cytolytic)” value in [9] (Liver) came out at 1. In addition, the “Hepatotoxicity (benign tumour)” value in series [10] is 0. Further, the “Hepatotoxicity (acute)” value in series [11] (Liver) turned out to be 0%; in series [12] it was 1. Also, the “Hepatotoxicity (granulomatous hepatitis)” value in series [13] (Liver) turned out to be 0. The “Hepatotoxicity (cirrhosis)” value in [14] turned out to be 0. Moreover, the “Hepatotoxicity (animal toxicity known)” value in [15] is given as “yes”. Also, the “Hepatotoxicity (association with vascular disease)” value in [16] was 0.
As for `O=C(O)/C=C/C(=O)O` [FUMARIC ACID], the “Hepatotoxicity (steatosis)” value in series [1] was 0. In addition, in [2], the “Hepatotoxicity (malignant tumour)” value was found to be 0. In addition, the “Hepatotoxicity (time to onset)” value in series [3] was found to be 2 months. The “Hepatotoxicity (chronic liver disease)” value in series [4] is given as 0. Moreover, the results for the “Hepatotoxicity (moderate)” value in [5] and in [7] were 6 and 59%, respectively. Besides, the “Hepatotoxicity (choleostasis)” value in series [6] was found to be 0. In series [8], the “Hepatotoxicity (severe hepatitis)” value is 0. The “Hepatotoxicity (cytolytic)” value in series [9] came out at 0. In addition, the “Hepatotoxicity (benign tumour)” value in [10] is given as 0. Moreover, the entries for the “Hepatotoxicity (acute)” value in series [11] and in [12] were 0% and 0, respectively. Further, the “Hepatotoxicity (granulomatous hepatitis)” value in [13] amounted to 0. The “Hepatotoxicity (cirrhosis)” value in series [14] was found to be 0. Moreover, the “Hepatotoxicity (animal toxicity known)” value in series [15] is recorded as “yes”. The “Hepatotoxicity (association with vascular disease)” value in series [16] came to 0.
For `[N-]=[N+]=O` [NITROUS OXIDE], the “Hepatotoxicity (steatosis)” value in series [1] is 0. For the same molecule, the “Hepatotoxicity (malignant tumour)” value in [2] came to 0. Besides, the “Hepatotoxicity (time to onset)” value in [3] is reported as 9 days. Besides, the “Hepatotoxicity (chronic liver disease)” value in [4] amounted to 0. Also, the “Hepatotoxicity (moderate)” value in series [5] came to 1; in [7], 0%. Further, the “Hepatotoxicity (choleostasis)” value in series [6] is 0. Besides, in series [8], the “Hepatotoxicity (severe hepatitis)” value amounted to 0. For the same molecule, the “Hepatotoxicity (cytolytic)” value in [9] is recorded as 1. In addition, the “Hepatotoxicity (benign tumour)” value in series [10] is 0. Further, the “Hepatotoxicity (acute)” value stood at 0% in [11] and 1 in [12]. For the same molecule, in [13], the “Hepatotoxicity (granulomatous hepatitis)” value amounted to 0. In [14], the “Hepatotoxicity (cirrhosis)” value turned out to be 0. In addition, in series [15], the “Hepatotoxicity (animal toxicity known)” value is reported as “yes”. In [16], the “Hepatotoxicity (association with vascular disease)” value was 0.
On to `COc1ccc2c(C(=S)N(C)CC(=O)O)cccc2c1C(F)(F)F` [TOLRESTAT], for which, in series [1], the “Hepatotoxicity (steatosis)” value is recorded as 0. Further, the “Hepatotoxicity (malignant tumour)” value in [2] was 0. Moreover, the “Hepatotoxicity (time to onset)” value in series [3] is listed as 7 weeks - 6 months. For the same molecule, the “Hepatotoxicity (chronic liver disease)” value in series [4] is 0. Besides, the “Hepatotoxicity (moderate)” value in [5] is 7; in [7], 15.4%. Moreover, the “Hepatotoxicity (choleostasis)” value in series [6] is given as 0. In series [8], the “Hepatotoxicity (severe hepatitis)” value turned out to be 1. Also, the “Hepatotoxicity (cytolytic)” value in [9] is recorded as 2. For the same molecule, in series [10], the “Hepatotoxicity (benign tumour)” value is recorded as 0. In addition, the “Hepatotoxicity (acute)” value in [11] is on record as 0.2%; in series [12] it was 2. For the same molecule, the “Hepatotoxicity (granulomatous hepatitis)” value in series [13] was determined as 0. The “Hepatotoxicity (cirrhosis)” value in series [14] came to 0. Besides, the “Hepatotoxicity (animal toxicity known)” value in [15] is “yes”. Moreover, the “Hepatotoxicity (association with vascular disease)” value in series [16] turned out to be 0.
As to `COc1ccc2nc(NC(=O)Nc3ccccc3)sc2c1` [FRENTIZOLE], the “Hepatotoxicity (steatosis)” value in series [1] was 0. The “Hepatotoxicity (malignant tumour)” value in series [2] was 0. For the same molecule, in [3], the “Hepatotoxicity (time to onset)” value stood at 1 week - 1 month. Also, the “Hepatotoxicity (chronic liver disease)” value in series [4] turned out to be 1. Also, the “Hepatotoxicity (moderate)” value in series [5] was 4; in [7], 70%. For the same molecule, in [6], the “Hepatotoxicity (choleostasis)” value is reported as 0. The “Hepatotoxicity (severe hepatitis)” value in series [8] is reported as 1. Besides, in series [9], the “Hepatotoxicity (cytolytic)” value is 2. Also, the “Hepatotoxicity (benign tumour)” value in [10] came out at 0. Also, the results for the “Hepatotoxicity (acute)” value in [11] and in series [12] were 0% and 2, respectively. In series [13], the “Hepatotoxicity (granulomatous hepatitis)” value turned out to be 0. The “Hepatotoxicity (cirrhosis)” value in series [14] worked out at 0. Further, the “Hepatotoxicity (animal toxicity known)” value in series [15] was “yes”. Moreover, in series [16], the “Hepatotoxicity (association with vascular disease)” value is recorded as 0.
On to `NNCCc1ccccc1` [PHENELZINE], for which the “Hepatotoxicity (steatosis)” value in series [1] is given as 0. Besides, the “Hepatotoxicity (malignant tumour)” value in series [2] was 1. In addition, the “Hepatotoxicity (time to onset)” value in [3] came to 3 weeks - 5 months. Besides, the “Hepatotoxicity (chronic liver disease)” value in series [4] was 0. For the same molecule, the “Hepatotoxicity (moderate)” value in [5] is 1; in series [7] (Liver) it was 0%. The “Hepatotoxicity (choleostasis)” value in series [6] (Liver) worked out at 0. Also, in series [8] (Liver), the “Hepatotoxicity (severe hepatitis)” value is 7. In addition, the “Hepatotoxicity (cytolytic)” value in [9] (Liver) came to 6. The “Hepatotoxicity (benign tumour)” value in [10] is recorded as 0. Besides, the “Hepatotoxicity (acute)” value is given as 0% in series [11] (Liver) and 6 in [12]. Further, the “Hepatotoxicity (granulomatous hepatitis)” value in series [13] (Liver) was found to be 0. Besides, in [14], the “Hepatotoxicity (cirrhosis)” value amounted to 1. The “Hepatotoxicity (animal toxicity known)” value in series [15] is given as “yes”. Also, in series [16], the “Hepatotoxicity (association with vascular disease)” value is 0.
With `CC(C)[C@](O)(C(=O)OCC1=CC[N+]2([O-])CC[C@@H](O)[C@@H]12)[C@H](C)O` (stereo not given in full) [INDICINE N-OXIDE], the “Hepatotoxicity (steatosis)” value in series [1] is 0. Also, the “Hepatotoxicity (malignant tumour)” value in series [2] was found to be 0. In addition, in series [3], the “Hepatotoxicity (time to onset)” value is 1 cure - 2 cures. Moreover, the “Hepatotoxicity (chronic liver disease)” value in series [4] was 0. Also, the results for the “Hepatotoxicity (moderate)” value in series [5] and in [7] were 8 and 62.5%, respectively. In addition, the “Hepatotoxicity (choleostasis)” value in [6] is on record as 0. The “Hepatotoxicity (severe hepatitis)” value in series [8] came out at 4. Further, the “Hepatotoxicity (cytolytic)” value in series [9] stood at 4. In series [10], the “Hepatotoxicity (benign tumour)” value is on record as 0. In addition, the “Hepatotoxicity (acute)” value in series [11] is 22.7%; in series [12] it was 6. In addition, in series [13], the “Hepatotoxicity (granulomatous hepatitis)” value stood at 0. Besides, the “Hepatotoxicity (cirrhosis)” value in series [14] worked out at 0. In addition, the “Hepatotoxicity (animal toxicity known)” value in series [15] was “yes”. The “Hepatotoxicity (association with vascular disease)” value in series [16] turned out to be 1.
On to `OCC(Br)(Br)Br` [TRIBROMOETHANOL], for which the “Hepatotoxicity (steatosis)” value in [1] is 9. In addition, the “Hepatotoxicity (malignant tumour)” value in series [2] is 0. In series [3], the “Hepatotoxicity (time to onset)” value amounted to 1 day - 4 days. For the same molecule, in series [4], the “Hepatotoxicity (chronic liver disease)” value was 0. The “Hepatotoxicity (moderate)” value in [5] is recorded as 1; in series [7], 0%. In addition, the “Hepatotoxicity (choleostasis)” value in [6] is 0. Moreover, the “Hepatotoxicity (severe hepatitis)” value in series [8] turned out to be 15. Also, the “Hepatotoxicity (cytolytic)” value in series [9] is on record as 8. In addition, the “Hepatotoxicity (benign tumour)” value in series [10] was found to be 0. Further, the “Hepatotoxicity (acute)” value came out at 0.1% in series [11] and 9 in [12]. Further, the “Hepatotoxicity (granulomatous hepatitis)” value in series [13] turned out to be 0. Also, in series [14], the “Hepatotoxicity (cirrhosis)” value came to 0. The “Hepatotoxicity (animal toxicity known)” value in series [15] is “yes”. For the same molecule, the “Hepatotoxicity (association with vascular disease)” value in series [16] was 0.
With `CN(C)[C@@H]1C(O)=C(C(=O)NCN2CCCC2)C(=O)[C@@]2(O)C(O)=C3C(=O)c4c(O)cccc4[C@@](C)(O)[C@H]3C[C@@H]12` [ROLITETRACYCLINE], the “Hepatotoxicity (steatosis)” value in series [1] was determined as 0. Moreover, in series [2], the “Hepatotoxicity (malignant tumour)” value is 0. For the same molecule, the “Hepatotoxicity (time to onset)” value in [3] came out at 2 days. The “Hepatotoxicity (chronic liver disease)” value in series [4] worked out at 0. The “Hepatotoxicity (moderate)” value is 0 in series [5] and 0% in series [7]. In series [6], the “Hepatotoxicity (choleostasis)” value is 0. Moreover, the “Hepatotoxicity (severe hepatitis)” value in [8] came to 1. Moreover, the “Hepatotoxicity (cytolytic)” value in [9] came to 1. The “Hepatotoxicity (benign tumour)” value in series [10] is recorded as 0. Further, the “Hepatotoxicity (acute)” value in series [11] is reported as 0%; in [12], 1. The “Hepatotoxicity (granulomatous hepatitis)” value in series [13] amounted to 0. Further, in series [14], the “Hepatotoxicity (cirrhosis)” value was 0. In [15], the “Hepatotoxicity (animal toxicity known)” value was “yes”. In addition, in [16], the “Hepatotoxicity (association with vascular disease)” value came to 0.
